Test results as given in patent US10160867B2, “Benzoxaborole-containing coating resistant to cellulose-supportable fungus” (THE PENN STATE RESEARCH FOUNDATION, priority 2015, dated 2018).
In brackets after ≈: the same amount, converted by molar mass.

Tests used:
[1] = tested on: Mucor spp.; test: 3 day MIC, broth microdilution in 25% PDB; assay type: cell-based; settings: 72 h
Experimental: (§1) Stock solutions (concentrations of between 4,000 μg/mL to 10,000 μg/mL; stored at −18° C.) of the above antifungals were prepared in dimethyl sulfoxide (DMSO). The stock solutions were further diluted into sterile 25% potato dextrose broth (PDB) so that the diluted solutions could be used for the antifungal susceptibility studies. This way, a typical microdilution study would reach a final ratio of about 0.5-2% v/v of DMSO in 25% PDB.
(§2) Spore inocula were prepared in sterile distilled water with 0.1% Tween® 20 (a polysorbate surfactant), and a hemocytometer was used to determine the spore density. Typically, the spore inoculum was prepared fresh prior to each study, and the inoculum was appropriately diluted to a final concentration of 0.4-1×10^5 spores/mL or colony-forming unit (CFU)/mL in each study. The spore suspension can be stored in a refrigerator at 4° C. for up to one week.
(§3) The minimal inhibitory concentrations (MICs) for individual antifungal agents were determined by following a modified broth microdilution protocol CLSI (Clinical and Laboratory Standards Institute) M38-A2 [Clinical and Laboratory Standards Institute (2008) Reference method for broth dilution antifungal susceptibility testing of filamentous fungi—2nd edition: Approved Standard M38-A2, CLSI, Wayne, Pa.] where 25% potato dextrose broth (PDB) was used as the medium. The studies were performed in flat bottom, 96-well microtiter plates (Greiner Bio-One, Frickenhausen, Germany).
(§4) Plates sealed with clear polyester film (VWR, Radnor, Pa.) were incubated at a temperature of about 25° C. The progress of fungal growth was monitored at 48 hours and 72 hours.

[2] = tested on: Aspergillus fumigatus; test: 3 day MIC, broth microdilution in 25% PDB; assay type: cell-based; settings: 72 h
Experimental: as §1, §2, §3, §4

[3] = tested on: Cladosporium cladosporioides; test: 3 day MIC, broth microdilution in 25% PDB; assay type: cell-based; settings: 72 h
Experimental: as §1, §2, §3, §4

[4] = tested on: Aureobasidium pullulans; test: 3 day MIC, broth microdilution in 25% PDB; assay type: cell-based; settings: 72 h
Experimental: as §1, §2, §3, §4

[5] = tested on: Aspergillus niger; test: 3 day MIC, broth microdilution in 25% PDB; assay type: cell-based; settings: 72 h
Experimental: as §1, §2, §3, §4

[6] = tested on: Fusarium oxysparum ST-33; test: 3 day MIC, broth microdilution in 25% PDB; assay type: cell-based; settings: ST33, 72 h
Experimental: as §1, §2, §3, §4

[7] = tested on: Aspergillus flavus; test: 3 day MIC, broth microdilution in 25% PDB; assay type: cell-based; settings: 72 h
Experimental: as §1, §2, §3, §4

[8] = tested on: Rhizopus spp.; test: 3 day MIC, broth microdilution in 25% PDB; assay type: cell-based; settings: 72 h
Experimental: as §1, §2, §3, §4

[9] = commercially available fungicidal agents; cited from earlier work
[10] = tested on: Penicillium chrysogenum; test: Fungus resistance test after painting over fungal growth (defacement rating); assay type: cell-based; settings: painted over fungal growth, +200 μg/mL in Valspar QuikHide paint
Source text: (§5) In this series of experiments, fungal growth was allowed to cover a painted surface (surface containing 2 coats of the unaltered paint) to a defacement rating of 3-5, forming a ‘contaminated surface’. […] The paint application was extended approximately 1-2 cm beyond the edge of the disc onto the NSA medium. Each formulation used a separate brush to avoid cross contamination. The re-painted discs were placed back into the humid environment with elevated temperature to encourage fungal growth.
(§6) This test was used to evaluate the ability of paint films containing antifungal additives to prevent the re-emergence of fungal growth after painting over existing growth.
(§7) Olympic® Home interior flat latex paint (PPG Industries, Pittsburgh, Pa.) and Valspar® QuikHide White flat interior paint (Valspar Corporation, Minneapolis, Minn.) were used for the experiments in this study unless specified. Stock solutions of the antifungal additives of interest were prepared in reagent grade dimethyl sulfoxide (DMSO; Alfa Aesar, Ward Hill, Mass.). Additives were spiked (by adding appropriate amounts of the antifungal stock solutions) into the liquid paint at specified concentrations. Samples of additive-spiked paint were vigorously mixed with a vortex mixer for at least one minute to insure uniform dispersion of the additive in the paint. […] Studies that used other brands of paint followed the same protocol as described for those using the Olympic® Home interior flat latex paint.
(§8) Test surfaces were prepared in triplicate. In most cases, the tested conditions were repeated on a different date, again in triplicate. […] Two coats of paint were applied with a polyester brush to completely cover both faces of the filter paper disc, allowing at least four hours drying time between coats.
(§9) Nutrient-Salts Agar (NSA) media was prepared according to ASTM method G21-13 in 100×15 mm sterile polystyrene petri dishes (VWR® Radnor, Pa.) with a solidified agar layer from 3 to 6 mm (⅛ to ¼ in.) in depth. The agar was allowed to solidify for at least 24 hours before being used. The painted test filter paper discs were placed in the center of the agar plates in a biosafety hood while wearing clean nitrile gloves.
(§10) The paint coatings were evaluated against three representative fungi: Stachybotrys chartarum, Penicillium chrysogenum, and Alternaria alternata. […] Fungal isolates of Alternaria alternata and Penicillium chrysogenum were obtained from the Plant Pathology and Environmental Microbiology Department at Penn State University.
(§11) A spore suspension of each of these fungi was prepared by pouring a 20-mL portion of autoclaved deionized water containing 0.01% Tween® 20 onto a subculture of each fungal species. Spores were counted with the use of a hemocytometer (Hausser Scientific, Horsham, Pa.) under a microscope. Spore suspensions of Stachybotrys chartarum and Penicillium chrysogenum were diluted to 1×10^6 spores/mL with autoclaved deionized water. Spore suspensions of Alternaria alternata were used “as is” in the range of 200,000 to 400,000 spores/mL.
(§12) Painted test surfaces were inoculated with a spray bottle or with a cotton-tipped applicator. To inoculate the sample with a spray bottle, the spore suspension was sprayed twice on the painted test discs with a spray bottle that delivered approximately 0.14 g of fluid per spray. To inoculate the sample with a cotton-tipped applicator, an autoclaved cotton-tipped applicator was submerged in approximately 400 μL of the inoculum solution and applied evenly over the surface of the painted test surface twice.

[11] = tested on: Alternaria alternata; test: as above; assay type: cell-based; settings: painted over fungal growth
Source text: as §5, §6, §7, §8, §9, §10, §11, §12

[12] = tested on: Stachybotrys chartarum; test: as above; assay type: cell-based; settings: painted over fungal growth, +100 μg/mL in Olympic Home paint
Source text: as §5, §6, §7, §8, §9, §10, §11, §12

Compound: c1ccc2[nH]c(-c3cscn3)nc2c1 [Thiabendazole]
- MIC [1]: > 200 µg/mL
- MIC [2]: 6.25 µg/mL (≈ 31.1 µM)
- MIC [3]: 0.8 µg/mL (≈ 3.98 µM)
- MIC [4]: 0.4 µg/mL (≈ 1.99 µM)
- MIC [5]: 12.5 µg/mL (≈ 62.1 µM)
- MIC [6]: 25 µg/mL (≈ 124 µM)
- MIC [7]: 12.5 µg/mL (≈ 62.1 µM)
- MIC [8]: 400 µg/mL (≈ 1990 µM)
- Solubility in water [9]: 8 mg/L (≈ 39.8 µM)
- Average defacement rating ± standard deviation ([10]; 7 days): 6.7 ± 4.6 (9)
- Average defacement rating ± standard deviation ([10]; 14 days): 2.2 ± 4.4 (9)
- Average defacement rating ± standard deviation ([10]; 21 days): 2.2 ± 4.4 (9)
- Average defacement rating ± standard deviation ([11]; +100 μg/mL in Olympic Home paint, 7 days): 0.0 ± 0.0 (6)
- Average defacement rating ± standard deviation ([11]; +100 μg/mL in Olympic Home paint, 14 days): 0.0 ± 0.0 (6)
- Average defacement rating ± standard deviation ([11]; +100 μg/mL in Olympic Home paint, 21 days): 0.0 ± 0.0 (6)
- Average defacement rating ± standard deviation ([11]; +1000 μg/mL in Olympic Home paint, 7 days): 7.3 ± 1.3 (10)
- Average defacement rating ± standard deviation ([11]; +1000 μg/mL in Olympic Home paint, 14 days): 3.6 ± 1.7 (10)
- Average defacement rating ± standard deviation ([11]; +1000 μg/mL in Olympic Home paint, 21 days): 2.8 ± 1.1 (10)
- Average defacement rating ± standard deviation ([12]; 7 days): 0.7 ± 1.6 (6)
- Average defacement rating ± standard deviation ([12]; 14 days): 0.2 ± 0.8 (6)
- Average defacement rating ± standard deviation ([12]; 21 days): 0.2 ± 0.8 (6)
